From patent US11679140B2, “Prevention and/or treatment of hearing loss or impairment” (INSTITUT PASTEUR, priority 2015, dated 2023)
Entries after “also recorded” stand apart in the source; their conditions may differ.

Assays:
[1] = system: mouse embryonic fibroblasts; assay: H2O2-induced peroxisome proliferation in mouse embryonic fibroblasts; type: cell-based
Description: Fibroblasts were isolated from mouse embryos at embryonic day 13.5 and cultured as described by Xu (2005). The cells were incubated in DMEM (Gibco) supplemented with 0.1 mM β-mercaptoethanol, and 0.5 mM H2O2 for 4 hours at 37° C., under normoxic conditions (95% air). The culture medium was then replaced with H2O2-free medium. Cell viability was checked 18 hours after H2O2 treatment, by measuring mitochondrial reductase activity with the MTT (3-(4,5-dimethylthiazol-2-yl)-2,5-diphenyl tetrazolium bromide) (Sigma M2128) assay. A polyclonal antibody against peroxisome membrane protein 70 (PMP70, Abcam ab3421) was used to label peroxisomes.

[2] = system: Pjvk−/− mice (OHC function); assay: Distortion-product otoacoustic emissions (DPOAE) in Pjvk−/− mice; type: in vivo, mouse; conditions: antioxidant-treated Pjvk−/− pups, around P21
Description: Auditory tests were performed in an anechoic room. They consisted of distortion-product otoacoustic emissions (DPOAEs), auditory brainstem responses (ABRs), electrically-evoked brainstem responses (EEBRs), and cochlear potentials. Mice were anesthetized with an intraperitoneal injection of a ketamine and levomepromazin mixture (100 mg/kg: 5 mg/kg) and their core temperature was kept at 37° C. with the help of a servo-controlled heating pad. The DPOAE at frequency 2f1-f2 was recorded in response to two equal level primary tones, f1 and f2, with f2/f1=1.20 (CubeDis system, Mimosa Acoustics; ER10B microphone, Etymotic Res.). Frequency f2 was swept at 1/10th octave steps from 4 to 20 kHz, and DPOAE level was plotted against frequency f2 (primary tone levels increased from 20 to 70 dB SPL in 10 dB steps, then to 75 dB SPL). […] ABRs in response to calibrated short tone bursts in the 5-40 kHz range (repetition rate 17/s) were derived from the synchronous averaging of electroencephalograms recorded between subcutaneous stainless steel electrodes at the vertex and ipsilateral mastoid, with the help of a standard digital averaging system (CED1401+). […] Once ABR thresholds had been assessed, ABRs in response to 95 and 105 dB SPL tone bursts (100 averages) were collected for analysis of suprathreshold ABR waveforms, amplitudes and latencies. […]

[3] = system: Pjvk−/− mice; assay: Auditory brainstem responses (ABR) in Pjvk−/− mice; type: in vivo, mouse; conditions: for recovery of ABR wave I latency and ABR interwave I-IV: treated Pjvk−/− mice
Description: Auditory tests were performed in an anechoic room. They consisted of distortion-product otoacoustic emissions (DPOAEs), auditory brainstem responses (ABRs), electrically-evoked brainstem responses (EEBRs), and cochlear potentials. Mice were anesthetized with an intraperitoneal injection of a ketamine and levomepromazin mixture (100 mg/kg: 5 mg/kg) and their core temperature was kept at 37° C. with the help of a servo-controlled heating pad. The DPOAE at frequency 2f1-f2 was recorded in response to two equal level primary tones, f1 and f2, with f2/f1=1.20 (CubeDis system, Mimosa Acoustics; ER10B microphone, Etymotic Res.). Frequency f2 was swept at 1/10th octave steps from 4 to 20 kHz, and DPOAE level was plotted against frequency f2 (primary tone levels increased from 20 to 70 dB SPL in 10 dB steps, then to 75 dB SPL). DPOAE threshold was defined as the smallest primary level giving rise to a detectable DPOAE. ABRs in response to calibrated short tone bursts in the 5-40 kHz range (repetition rate 17/s) were derived from the synchronous averaging of electroencephalograms recorded between subcutaneous stainless steel electrodes at the vertex and ipsilateral mastoid, with the help of a standard digital averaging system (CED1401+). A hundred responses to the tone bursts were averaged except within 10 dB of the ABR threshold (defined as the smallest tone-burst level giving rise to at least one repeatable wave above noise background level, 150 nV in an anesthetized animal), for which 300 tone bursts were used. Once ABR thresholds had been assessed, ABRs in response to 95 and 105 dB SPL tone bursts (100 averages) were collected for analysis of suprathreshold ABR waveforms, amplitudes and latencies. Controlled sound exposure was applied with the same acoustic probe used for ABRs without moving the sound system, so that pre- and post-exposure ABRs shared the same calibration. Intense stimuli were the same tone-bursts used for ABR measurements at 105 dB SPL, presented 1,000 times at the same repetition rate of 17/s. […]
N-acetyl-L-cysteine (L-NAC; Sigma) or taurine (Sigma) was administrated to pregnant Pjvk^−/− mice in the drinking water. A daily dose of 1% L-NAC or 2% taurine was given to the mother during and after pregnancy, so that pups received them from birth on by feeding on the mother's milk. The treatment was continued until P21, and the auditory function of the treated Pjvk^−/− pups was tested at P21.

[4] = system: Pjvk−/− mice (auditory neurons); assay: Electrically-evoked brainstem responses (EEBR) with controlled electrical stimulation in Pjvk−/− mice; type: in vivo, mouse; conditions: for EEBR wave E IV amplitude / resistance to high-rate electrical stimulation: 200/s for 1 minute, treated Pjvk−/− mice
Source text: Electrical stimulations of the eighth cranial nerve were delivered by a silver electrode placed in the round-window niche and excited by biphasic electrical impulses (neutral electrode in neck muscles; peak amplitude of electrical stimulus about 0.5 V; duration of the positive and negative phases 150 microseconds; adjustable repetition rate). EEBRs were extracted using the same setup as for ABRs (Roux et al., 2006), in response to 100 electrical impulses presented with alternating polarities (repetition rate 17 Hz). EEBR threshold was defined as the smallest electrical amplitude eliciting repeatable waves above noise background level (the same as for ABRs), labelled from E II to E IV in reference to their ABR equivalents II-IV. Controlled electrical stimulation was applied at 5 dB above EEBR detection threshold with a 200 Hz repetition rate. Occasionally, the silver electrode on the round window served for recording Compound Action Potentials (CAPs) in response to the same tone-bursts used for ABR studies (averages of 32 presentations, repetition rates 17/s), prior to EEBR data collection. These recordings served to check that CAP thresholds and ABR thresholds were within 2 dB of each other at all frequencies, and the exact position of ABR wave I could be ascertained form the larger wave N1, its equivalent on CAP recordings. This was particularly important in mice with abnormally small wave I to avoid incorrect identifications (when wave I was reduced to a very small flattened deflection resembling a summating potential, the slightly larger wave II might have been mistakenly labelled wave I on ABR recordings, while wave N1, even when small, kept its characteristic shape).
Intracochlear viral transduction was carried out as described by Akil et al. (2012). […]
Which cells are the targets of the pejvakin defect, and are they all hypervulnerable to sound exposure? […] Moreover, Electrically-Evoked Brainstem Responses (EEBR) to a direct electric stimulation of the auditory neurons, which test the response of the auditory pathway beyond the cochlea, was also analysed. […]

[5] = antioxidant-treated Pjvk−/− mice, P21

SMILES | increase in number of peroxisomes after H2O2 treatment, Pjvk+/+ fibroblasts ([1]; 0.5 mM H2O2, Pjvk+/+ MEFs) [%] | number of peroxisomes after H2O2 treatment, Pjvk−/− fibroblasts ([1]; 0.5 mM H2O2, Pjvk−/− MEFs) | effect on OHCs (DPOAE) [2] | protective effect on IHCs and neurons ([3]; Pjvk−/− mice) | number of auditory neurons that responded to sound stimulation in synchrony ([3]; Pjvk−/− pups treated via mother's milk) | ABR threshold at 10 kHz ([3]; antioxidant via mother's drinking water/milk, Pjvk−/− pups tested around P21) [dB SPL] | ABR wave I amplitude (in words) [3, 5] | ABR wave I latency [3, 5] [ms] | amplitude of ABR wave I in response to 105 dB SPL [3, 5] [μV] | ABR interwave I-IV latency ([3]; antioxidant-treated Pjvk−/− pups, P21) [ms] | ABR thresholds (recovery) ([3]; antioxidant-treated vs untreated Pjvk−/− pups, P21, listed as NAC) | recovery of ABR wave I latency and ABR interwave I-IV ([3]; P21) | EEBR wave E IV amplitude / resistance to high-rate electrical stimulation [4] | EEBR wave E IV amplitude / resistance to high-rate electrical stimulation ([4]; listed as NAC) | recovery of neuronal function after high-rate electrical stimulation ([4]; 5 min after high-rate exposure)
OO [H2O2] | 46 | remained unchanged | – | – | – | – | – | – | – | – | – | – | – | – | –
CC(=O)N[C@@H](CS)C(=O)O [N-acetyl cysteine, N-acetyl-L-cysteine] | – | – | no beneficial effect on OHCs | moderate protective effect | restored | 72.2±9.3 | fell within the normative range | 1.55 ± 0.18 | 4.35±1.16 | 2.91 ± 0.32 | slight recovery; also recorded: slightly improved | no significant recovery | resisted to high-rate electric stimulation of auditory pathways better than untreated | remained unaffected | Full recovery of neuronal function
NCCS(=O)(=O)O [taurine] | – | – | no beneficial effect on OHCs | – | – | – | – | – | – | – | – | no significant recovery | – | – | –
